What was measured:
[1] = test system: Cunninghamella elegans bio-110930; assay: Microbial transformation of euphorbiasteroid, metabolite detection; conditions: C. elegans bio-110930 culture with euphorbiasteroid
Protocol: The biotransformation process was conducted at two scales: preliminary screening and preparative. Preliminary screening scale biotransformation of euphorbiasteroid was carried out in 250 mL Erlenmeyer flasks containing 100 mL of liquid medium. The flasks were placed on a rotary shaker (160 rpm, 28 °C). A standard two-stage fermentation protocol was employed in all experiments. After 2 days of pre-culture, the substrates of 5 mg (dissolved in 0.5 mL of acetone) were added into each flask. Taking 1 mL samples on days 0, 2, 4, 7, 10, and 14, samples were centrifuged and the degree of transformation was compared to controls on TLC and HPLC, and a 2-μL aliquot of the supernatant was directly injected into the UPLC-Q-TOF-MS system. Culture controls consisted of sterile medium, in which microorganisms were grown under identical conditions without substrate. Substrate controls were composed of sterile medium and the same amount of substrate incubated under the same conditions without microorganisms.
(§1) First, the metabolites of euphorbiasteroid in rats (plasma, urine, and feces), RLMs, and C. elegans culture medium were predicted by setting the prototype components and potential biological metabolic reactions in UNIFI 4.1 software. Then, the predicted metabolites in each sample were further compared according to the characteristic mass spectrum behaviors (including parent ions, internal cleavage in the ion source, and characteristic fragment ions of each metabolite) and retention times.

[2] = In vitro incubation of euphorbiasteroid with rat liver microsomes, metabolite detection; type: in vitro ADME; conditions: 37 °C, 1 h, NADPH regenerating system
Protocol: The microsomal incubation approach was based on previous metabolism studies published by Wintermeyer et al. and Franziska et al.. A 200 μL incubation system containing 10 μL of solution A, 2 μL of solution B, 5 μL of rat liver microsomes (20 mg/mL) and 182 μL 0.1 M PBS buffer (pH = 7.4) was constructed. The above solution was heated in a 37 °C water bath, then 1 μL of euphorbiasteroid (dissolved in DMSO solution, 10 mM) was used to start the reaction, and the mixture was then incubated at 37 °C for 1 h. The reactions were terminated by the addition of 200 μL of ice-cold acetonitrile. The mixture was then centrifuged at 13,000 rpm for 10 min, and a 2-μL aliquot of the supernatant was directly injected into the UPLC-Q-TOF-MS system.
as §1

[3] = Metabolite detection in rats (plasma, urine, feces) after oral euphorbiasteroid by UPLC-Q/TOF-MS; type: in vivo, Sprague-Dawley rats; conditions: single oral dose 100 mg/kg euphorbiasteroid
Protocol: For metabolite separation and detection, chromatographic analyses were performed using a Waters Acquity UPLC I-class system (Waters, Milford, MA, USA), equipped with an auto-sampler, a binary solvent delivery system, an online degasser, and a photodiode array detector. An ACQUITY UPLC® HSS T3 column (2.1 × 150 mm, 1.8 μm, Waters) protected with a HSS T3 VanGuard ™ Pre-Column 3/Pk (2.1 × 5.0 mm, 1.8 μm, Waters) was used. The optimized parameters were set as follows: the mobile phase consisted of eluent A (0.1% formic acid in water, v/v) and eluent B (acetonitrile). The flow rate was 0.3 mL/min. The column and auto-sampler temperatures were maintained at 40 °C and 4 °C, respectively. The gradient elution program was optimized as follows: 0–9 min, 30–70% B; 9–13 min, 70–90% B; 13–17 min, 90–100% B; 17–20 min, 100–100% B.
The mass spectrometry detection was performed on the SYNAPT G2-Si HDMS system, equipped with an electrospray ionization (ESI) source (Waters Corp., Manchester, UK). A positive ion mode was conducted in this analysis. Mass spectrometry conditions were finally set as follows: capillary voltage of 3.0 kV, cone voltage of 40 V, source temperature of 120 °C, and de-solvation temperature of 400 °C. Nitrogen was used as the desolvation and cone gas with a flow rate of 800 and 50 L/h, respectively, and the full-scan mass range was set as m/z 50–1500 Da. In the auto mass spectrometry mode, the collision-induced dissociation energies were set at 0 eV for the precursor ion at the low-energy mode, and the collision-induced dissociation energies were set from 2 to 10 eV for the high-energy mode. Real-time data were calibrated using an external reference (LockSpray™) at a concentration of 0.2 ng/mL with an infusion flow rate of 5 μL/min, generating a reference ion for the positive ion mode (m/z 556.2771) during the UPLC-MS analysis. Data were acquired and processed using MassLynx ™ NT 4.1 software (Waters, Milford, MA, USA).
Male Sprague-Dawley rats (200–220 g) were commercially supplied by Shanghai Sippr-BK Laboratory Animal Co., Ltd. (Shanghai, China) and were housed in a humidity- and temperature-controlled room (50 ± 10% and 22–24 °C) with a 12-h light/dark cycle. The experimental rats were allowed to access food and water ad libitum and acclimatized to the conditions mentioned above for a week, then fasted overnight but with free access to water before the experiments. Euphorbiasteroid was dissolved in soybean oil solution (containing 0.5% ethanol) to form a concentration of 10 mg/mL. A single dose of 100 mg/kg euphorbiasteroid was orally administered to rats and the same concentration of soybean oil solution (containing 0.5% ethanol) was administered as a blank control. All animal procedures were performed in accordance with the Guidelines for Care and Use of Laboratory Animals of Naval Medical University and approved by the Animal Ethics Committee of Naval Medical University.
Blood samples (0.5 mL) were collected from six rats through the orbital sinus before administration (blank sample) and 0.25, 0.5, 1, 2, 4, 6, and 12 h after administration. Plasma samples were prepared by centrifugation at 4000 rpm for 10 min. For urine and feces sampling, 12 rats were divided into an administration group and a blank group, and were placed separately in stainless steel metabolic cages. Urine and feces samples were collected in containers surrounded by ice over 0–6, 6–12, and 12–24 h after drug administration. The mixed urine samples were centrifuged at 4000 rpm for 10 min at 4 °C to obtain the supernatants, and fecal samples were left in a cool and dry place until dry. All the biological samples were frozen at −80 °C before analysis.
An aliquot of 200 µL of plasma and urine samples was put in a 1.5 mL tube, respectively. 800 µL of acetonitrile was added and vortexed for 5 min to extract metabolites. Feces samples (1.0 g) were crushed and then ultrasonically extracted with acetonitrile (10 mL) for 30 min. […]

CC(=O)OC1C2C(OC(=O)Cc3ccccc3)C(C)CC2(OC(C)=O)C(=O)C(C)=CC2C(CCC13CO3)C2(C)CO (stereo not drawn) [Compound M1, 18α-hydroxyl euphorbiasteroid]
√: Distribution Fungi (metabolite detected) [1] | Distribution RLMs (metabolite detected) [2] | Distribution Rat Faeces (metabolite detected) [3] | Distribution Rat Plasma (metabolite detected) [3] | Distribution Rat Urine (metabolite detected) [3]

CC(=O)OC1C2C(OC(=O)Cc3ccc(O)cc3)C(C)CC2(OC(C)=O)C(=O)C(C)=CC2C(CCC13CO3)C2(C)C (stereo not shown) [Compound M2, 4′-hydroxyl euphorbiasteroid]
√: Distribution Fungi (metabolite detected) [1] | Distribution RLMs (metabolite detected) [2] | Distribution Rat Faeces (metabolite detected) [3] | Distribution Rat Urine (metabolite detected) [3]

CC(=O)OC1C2C(OC(=O)C(O)c3ccccc3)C(C)CC2(OC(C)=O)C(=O)C(C)=CC2C(CCC13CO3)C2(C)C (stereo not shown) [Compound M4, 7′-hydroxyl euphorbiasteroid]
√: Distribution Fungi (metabolite detected) [1] | Distribution RLMs (metabolite detected) [2] | Distribution Rat Faeces (metabolite detected) [3] | Distribution Rat Plasma (metabolite detected) [3] | Distribution Rat Urine (metabolite detected) [3]

CC(=O)OC1C2C(OC(=O)Cc3ccccc3O)C(C)CC2(OC(C)=O)C(=O)C(C)=CC2C(CCC13CO3)C2(C)C (stereo not shown) [Compound M5, 2′-hydroxyl euphorbiasteroid]
√: Distribution Fungi (metabolite detected) [1] | Distribution RLMs (metabolite detected) [2] | Distribution Rat Faeces (metabolite detected) [3] | Distribution Rat Plasma (metabolite detected) [3]

CC(=O)OC1C2C(OC(=O)Cc3ccccc3)C(CO)CC2(OC(C)=O)C(=O)C(C)=CC2C(CCC13CO3)C2(C)C (stereo not shown) [Compound M6]
√: Distribution RLMs (metabolite detected) [2] | Distribution Rat Faeces (metabolite detected) [3] | Distribution Rat Plasma (metabolite detected) [3]

CC(=O)OC1C2C(OC(=O)Cc3ccccc3O)C(C)CC2(OC(C)=O)C(=O)C(C)=CC2C(CCC13CO3)C2(C)CO (stereo not drawn) [Compound M8, 18α,2′-dihydroxyl euphorbiasteroid]
√: Distribution Fungi (metabolite detected) [1] | Distribution RLMs (metabolite detected) [2] | Distribution Rat Faeces (metabolite detected) [3] | Distribution Rat Plasma (metabolite detected) [3] | Distribution Rat Urine (metabolite detected) [3]

CC(=O)OC1C2C(OC(=O)CC3=CC=CC(O)C3O)C(C)CC2(OC(C)=O)C(=O)C(C)=CC2C(CCC13CO3)C2(C)C (stereo not shown) [Compound M12, 5′,6′-dihydroxyl dihydroeuphorbiasteroid]
√: Distribution Fungi (metabolite detected) [1] | Distribution RLMs (metabolite detected) [2] | Distribution Rat Faeces (metabolite detected) [3] | Distribution Rat Plasma (metabolite detected) [3]

CC(=O)OC1C2C(OC(=O)CC3=CC(O)C(O)C=C3)C(C)CC2(OC(C)=O)C(=O)C(C)=CC2C(CCC13CO3)C2(C)C (stereo not shown) [Compound M13, 3′,4′-dihydroxyl dihydroeuphorbiasteroid]
√: Distribution Fungi (metabolite detected) [1] | Distribution RLMs (metabolite detected) [2] | Distribution Rat Faeces (metabolite detected) [3] | Distribution Rat Plasma (metabolite detected) [3]

CC(=O)OC1C2C(OC(=O)Cc3ccccc3)C(C=O)CC2(OC(C)=O)C(=O)C(C)=CC2C(CCC13CO3)C2(C)C (stereo not shown) [Compound M14]
√: Distribution Fungi (metabolite detected) [1] | Distribution Rat Faeces (metabolite detected) [3] | Distribution Rat Plasma (metabolite detected) [3] | Distribution Rat Urine (metabolite detected) [3]

CC(=O)OC1C2C(OC(=O)Cc3ccccc3)C(C=O)CC2(OC(C)=O)C(=O)C(C)=CC2C(CCC13CO3)C2(C)C (stereo not shown) [Compound M15]
√: Distribution Rat Faeces (metabolite detected) [3] | Distribution Rat Plasma (metabolite detected) [3] | Distribution Rat Urine (metabolite detected) [3]

CC(=O)O[C@H]1[C@H]2[C@@H](OC(=O)Cc3ccccc3O[C@@H]3O[C@H](CO)[C@@H](O)[C@H](O)[C@H]3O)[C@@H](C)C[C@]2(OC(C)=O)C(=O)/C(C)=C/C2C(CC[C@@]13CO3)C2(C)C (stereo partly shown) [Compound M28]
√: Distribution Rat Faeces (metabolite detected) [3]

euphorbiasteroid 2′-O-β-D-glucopyranoside [Compound M29]
√: Distribution Fungi (metabolite detected) [1]

Source: paper PMC9504842, “Comprehensive Metabolic Profiling of Euphorbiasteroid in Rats by Integrating UPLC-Q/TOF-MS and NMR as Well as Microbial Biotransformation” (Metabolites, 2022)
